Values of other authors as cited in patent EP2818484A1, “Synergistic combination of an anti-IgE antibody and an EP2 receptor agonist” (Universitat Autònoma de Barcelona, priority 2013, dated 2014).

Tested on: human lung mast cells
Conditions: Kay et al., British Journal of Pharmacology 2006, 147, 707

Compound	activation of human lung mast cells
CCCC1([C@H](O)C/C=C/[C@H]2[C@H](O)CC(=O)[C@@H]2CCCCCCC(=O)OC)CCC1 [butaprost]	inhibit activation
CCCCC[C@H](O)/C=C/[C@H]1[C@H](O)CC(=O)[C@@H]1C/C=C\CCCC(=O)O [PGE2]	inhibit activation
